According to ChEMBL document CHEMBL3885881, “DrugMatrix”:

Organism: Rattus norvegicus
Test: DrugMatrix - Regimen: Daily Repeat
Format: toxicity, organism-based, Sprague-Dawley
Set-up: regimen Daily Repeat, gender Male, age 6-8 weeks
Conditions: in vivo, po, route oral GAVAGE, vehicle 100 % WATER; for ABSOLUTE BASOPHIL / ABSOLUTE EOSINOPHIL / ABSOLUTE LYMPHOCYTE / ABSOLUTE MONOCYTE / ABSOLUTE SEGMENTED NEUTROPHIL / BASOPHIL / EOSINOPHIL / ERYTHROCYTE COUNT / HEMATOCRIT / HEMOGLOBIN / LEUKOCYTE COUNT / LYMPHOCYTE / MEAN CORPUSCULAR HEMOGLOBIN / MEAN CORPUSCULAR HEMOGLOBIN CONCENTRATION / MEAN CORPUSCULAR VOLUME / MONOCYTE / NEUTROPHIL / NUCLEATED RED BLOOD CELLS / PLATELET COUNT: tissue Blood; for ALANINE AMINOTRANSFERASE / ALBUMIN / ALKALINE PHOSPHATASE / ASPARTATE AMINOTRANSFERASE / BLOOD UREA NITROGEN / CARBON DIOXIDE / CHLORIDE / CHOLESTEROL / CREATINE PHOSPHOKINASE / CREATININE / GLUCOSE / LACTATE DEHYDROGENASE / LIPASE / PHOSPHORUS / POTASSIUM / SODIUM / TOTAL BILIRUBIN / TOTAL PROTEIN / URIC ACID: tissue Plasma
[1] = 58 mg/kg, 120 h, dose level Low, time 5 day
[2] = 1400 mg/kg, 72 h, dose level High, time 3 day
[3] = 1400 mg/kg, 120 h, dose level High, time 5 day

## Cc1cn([C@H]2C=C[C@@H](CO)O2)c(=O)[nH]c1=O [STAVUDINE]
[1]
  ABSOLUTE BASOPHIL: 0 CELLS/uL
  ABSOLUTE EOSINOPHIL: 94.33 CELLS/uL
  ABSOLUTE LYMPHOCYTE: 9260.33 CELLS/uL
  ABSOLUTE MONOCYTE: 0 CELLS/uL
  ABSOLUTE SEGMENTED NEUTROPHIL: 878.67 CELLS/uL
  BASOPHIL: 0%
  EOSINOPHIL: 1%
  ERYTHROCYTE COUNT: 5.68 x10E6/uL
  HEMATOCRIT: 35.3%
  HEMOGLOBIN: 13.67 G/DL
  LEUKOCYTE COUNT: 10.23 x10E3/uL
  LYMPHOCYTE: 90%
  MEAN CORPUSCULAR HEMOGLOBIN: 24.17 pg
  MEAN CORPUSCULAR HEMOGLOBIN CONCENTRATION: 38.73 G/DL
  MEAN CORPUSCULAR VOLUME: 62.33 fL
  MONOCYTE: 0%
  NEUTROPHIL: 9%
  NUCLEATED RED BLOOD CELLS: 0.33 /100WBC
  PLATELET COUNT: 999.33 x10E3/uL
  ALANINE AMINOTRANSFERASE: 49 u/L
  ALBUMIN: 4.1 G/DL
  ALKALINE PHOSPHATASE: 425 u/L
  ASPARTATE AMINOTRANSFERASE: 86.33 u/L
  BLOOD UREA NITROGEN: 14.33 mg/dL
  CARBON DIOXIDE: 28.33 mmol/L
  CHLORIDE: 104 MEQ/L
  CHOLESTEROL: 72.33 mg/dL
  CREATINE PHOSPHOKINASE: 506.33 u/L
  CREATININE: 0.15 mg/dL
  GLUCOSE: 173.33 mg/dL
  LACTATE DEHYDROGENASE: 155.33 u/L
  LIPASE: 8.67 u/L
  PHOSPHORUS: 11.87 mg/dL
  POTASSIUM: 5.3 MEQ/L
  SODIUM: 146.7 MEQ/L
  TOTAL BILIRUBIN: 0.17 mg/dL
  TOTAL PROTEIN: 6.03 G/DL
  URIC ACID: 0.67 mg/dL
[2]
  ABSOLUTE BASOPHIL: 0 CELLS/uL
  ABSOLUTE EOSINOPHIL: 0 CELLS/uL
  ABSOLUTE LYMPHOCYTE: 15246 CELLS/uL
  ABSOLUTE MONOCYTE: 148.33 CELLS/uL
  ABSOLUTE SEGMENTED NEUTROPHIL: 1072.33 CELLS/uL
  BASOPHIL: 0%
  EOSINOPHIL: 0%
  ERYTHROCYTE COUNT: 5.98 x10E6/uL
  HEMATOCRIT: 37.4%
  HEMOGLOBIN: 14.87 G/DL
  LEUKOCYTE COUNT: 16.47 x10E3/uL
  LYMPHOCYTE: 92.67%
  MEAN CORPUSCULAR HEMOGLOBIN: 24.9 pg
  MEAN CORPUSCULAR HEMOGLOBIN CONCENTRATION: 39.77 G/DL
  MEAN CORPUSCULAR VOLUME: 62.67 fL
  MONOCYTE: 1%
  NEUTROPHIL: 6.33%
  NUCLEATED RED BLOOD CELLS: 0 /100WBC
  PLATELET COUNT: 998.33 x10E3/uL
  ALANINE AMINOTRANSFERASE: 113.67 u/L
  ALBUMIN: 3.93 G/DL
  ALKALINE PHOSPHATASE: 510.67 u/L
  ASPARTATE AMINOTRANSFERASE: 191 u/L
  BLOOD UREA NITROGEN: 12.33 mg/dL
  CARBON DIOXIDE: 27 mmol/L
  CHLORIDE: 100.67 MEQ/L
  CHOLESTEROL: 97.33 mg/dL
  CREATINE PHOSPHOKINASE: 237.67 u/L
  CREATININE: 0.15 mg/dL
  GLUCOSE: 155 mg/dL
  LACTATE DEHYDROGENASE: 355 u/L
  LIPASE: 11.33 u/L
  PHOSPHORUS: 12.77 mg/dL
  POTASSIUM: 6.93 MEQ/L
  SODIUM: 142.73 MEQ/L
  TOTAL BILIRUBIN: 0.23 mg/dL
  TOTAL PROTEIN: 5.63 G/DL
  URIC ACID: 1.47 mg/dL
[3]
  ABSOLUTE BASOPHIL: 0 CELLS/uL
  ABSOLUTE EOSINOPHIL: 247.33 CELLS/uL
  ABSOLUTE LYMPHOCYTE: 16216.67 CELLS/uL
  ABSOLUTE MONOCYTE: 311.33 CELLS/uL
  ABSOLUTE SEGMENTED NEUTROPHIL: 2358 CELLS/uL
  BASOPHIL: 0%
  EOSINOPHIL: 1.33%
  ERYTHROCYTE COUNT: 5.64 x10E6/uL
  HEMATOCRIT: 35.57%
  HEMOGLOBIN: 13.87 G/DL
  LEUKOCYTE COUNT: 19.13 x10E3/uL
  LYMPHOCYTE: 84.67%
  MEAN CORPUSCULAR HEMOGLOBIN: 24.6 pg
  MEAN CORPUSCULAR HEMOGLOBIN CONCENTRATION: 39 G/DL
  MEAN CORPUSCULAR VOLUME: 63.1 fL
  MONOCYTE: 1.67%
  NEUTROPHIL: 12.33%
  NUCLEATED RED BLOOD CELLS: 0 /100WBC
  PLATELET COUNT: 1296.67 x10E3/uL
  ALANINE AMINOTRANSFERASE: 50.33 u/L
  ALBUMIN: 4.17 G/DL
  ALKALINE PHOSPHATASE: 429.33 u/L
  ASPARTATE AMINOTRANSFERASE: 75 u/L
  BLOOD UREA NITROGEN: 14.67 mg/dL
  CARBON DIOXIDE: 23 mmol/L
  CHLORIDE: 102 MEQ/L
  CHOLESTEROL: 81.67 mg/dL
  CREATINE PHOSPHOKINASE: 207 u/L
  CREATININE: 0.21 mg/dL
  GLUCOSE: 162 mg/dL
  LACTATE DEHYDROGENASE: 128.33 u/L
  LIPASE: 11.67 u/L
  PHOSPHORUS: 11 mg/dL
  POTASSIUM: 5.59 MEQ/L
  SODIUM: 145 MEQ/L
  TOTAL BILIRUBIN: 0.2 mg/dL
  TOTAL PROTEIN: 5.8 G/DL
  URIC ACID: 1.77 mg/dL
